Where a name gives a salt, the structure may show the parent alone.

This assay addresses T1, human GlyT1b (Homo sapiens, UniProt P48067).
T1 construct: expressed in transfected cells
T1 sequence (P48067 1-652 isoform P48067-3): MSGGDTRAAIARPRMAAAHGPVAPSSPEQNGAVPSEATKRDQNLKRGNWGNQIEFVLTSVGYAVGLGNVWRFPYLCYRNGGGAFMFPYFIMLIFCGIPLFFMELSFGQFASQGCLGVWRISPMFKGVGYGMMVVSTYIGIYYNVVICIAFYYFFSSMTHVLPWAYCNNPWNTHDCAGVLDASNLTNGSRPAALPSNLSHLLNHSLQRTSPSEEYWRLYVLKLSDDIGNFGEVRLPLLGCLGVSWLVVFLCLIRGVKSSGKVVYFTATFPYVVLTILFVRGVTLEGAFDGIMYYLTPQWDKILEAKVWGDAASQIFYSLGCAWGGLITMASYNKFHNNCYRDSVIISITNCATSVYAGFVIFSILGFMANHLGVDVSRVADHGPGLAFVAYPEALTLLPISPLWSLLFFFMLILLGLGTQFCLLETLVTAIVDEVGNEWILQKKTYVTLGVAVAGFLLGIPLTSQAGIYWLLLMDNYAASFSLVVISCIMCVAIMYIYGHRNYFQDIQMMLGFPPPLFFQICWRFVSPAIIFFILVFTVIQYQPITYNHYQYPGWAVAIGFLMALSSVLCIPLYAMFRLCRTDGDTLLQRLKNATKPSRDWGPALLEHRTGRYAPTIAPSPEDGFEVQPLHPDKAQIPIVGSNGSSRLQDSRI
Put plainly: [3H]Glycine Uptake Assay (SPA) in hGlyT1b/CHO cells. Conditions: read at 2 h. The class given is cell-based. The procedure:
The activity and usefulness of the compounds can be assessed in assays known to those skilled in the art. […] The potency was measured in the [3H]Glycine Uptake Assay substantially as described below.
[^3H]Glycine Uptake Assay
[^3H]Glycine: PerkinElmer (NET-004, [2-^3H]Glycine, 53.3 Ci/mmol, 1 mCi/mL)
Preparation of recombinant human GlyT1-CHO cells (hGlyT1-CHO). […] CHO-K1 cells (ATCC) were transfected with the recombinant vector containing GlyT1b using Lipofectamine 2000 (Invitrogen) and cultured in Ham's/F12 media supplemented with 10% fetal bovine serum, 2 mM L-glutamine at 37° C., 5% CO2, 90% humidity. Twenty-four hours after transfection, cells were diluted and switched to media containing 500 μg/ml hygromycin B. Antibiotic resistant cells were obtained after 21 days of culture in the presence of hygromycin B. Clonal stable cell lines were isolated by FACS single cell deposition into 96-well plates.
Cell culture: Recombinant hGlyT1-CHO cells were cultured in cell culture medium (Ham's/F12, containing 10% FBS, 2 mM L-glutamine and 500 μg/ml hygromycin B in 175 cm^2 flasks until near confluence prior to use in assay.
Cell suspension: Cell medium in a cell culture flask containing near confluent cells was removed and 5 ml of cell stripper was added to submerge all cells on the surface of the culture flask. Cell stripper was removed immediately and the flask incubated in a 37° C. incubator for ˜5 min. Cells were shaken loose and suspended in 5 ml of PBS. After splitting cells to initiate a new flask(s), the cells remaining were collected by centrifugation, counted, and resuspended in assay buffer to a density of ˜2 million/mL. The cell suspension was kept at room temperature before use.
SPA and isotope mixture: WGA PTV beads were suspended in assay buffer (2 mg/ml) containing 60 nM [^3H]Glycine and 20 μM unlabeled glycine and the suspension was kept at room temperature before assay.
Assay of glycine uptake: To the wells of an OptiPlate, 2 μl DMSO containing a test compound was spotted. This was followed by addition of 98 μl of cell suspension (˜1 million/ml final). After incubating cells with compound for ˜15 min, 100 μl of the SPA (200 μg/well final) and isotope mixture (30 nM isotope with 10 μM cold glycine, final) was added to initiate the glycine uptake. At 2 h, the plate was read on a TopCount to quantify SPA counts.

`O=C(NC(c1ccccc1)C12CCC(CC1)CN2)c1cccc(Cl)c1Cl` (single isomer, unassigned) [N-(2-azabicyclo[2.2.2]octan-1-yl(phenyl)methyl)-2,3-dichlorobenzamide]: it took 99.7 nM to reach half-maximal inhibition (compounds of Formula Ia) (IC50).

`Cc1c(C(=O)NC(c2ccccc2)C23CCC(CC2)CN3)cccc1C(F)(F)F` (single isomer, unassigned) [N-(2-azabicyclo[2.2.2]octan-1-yl(phenyl)methyl)-2-methyl-3-(trifluoromethyl)benzamide]: the IC50 – broadly, the concentration at which inhibition is half-maximal – (compounds of Formula Ia) was 67.6 nM. Same read-out and setting: next, `O=C(NC(c1ccccc1)C12CCC(CC1)CN2)c1cccc(C(F)(F)F)c1Cl` (single isomer, unassigned) [drawing 102, N-(2-azabicyclo[2.2.2]octan-1-yl(phenyl)methyl)-2-chloro-3-(trifluoromethyl)benzamide]: 455 nM; `O=C(NC(c1ccccc1)C12CCC(CC1)CN2)c1cccc(C(F)(F)F)c1Cl` (single isomer, unassigned) [drawing 103, N-(2-azabicyclo[2.2.2]octan-1-yl(phenyl)methyl)-2-chloro-3-(trifluoromethyl)benzamide]: 198 nM. Consider `CN1CC2CCC1(C(NC(=O)c1ccc(Cl)cc1Cl)c1ccccc1)CC2` (stereo not drawn) [2,4-dichloro-N-((2-methyl-2-azabicyclo[2.2.2]octan-1-yl)(phenyl)methyl)benzamide], for which the midpoint of inhibition (compounds of Formula Ib), the IC50, lay at 6.45 nM. The same measure, in the same setting: under `CN1CC2CCC1(C(NC(=O)c1cccc(F)c1Br)c1ccccc1)CC2` (stereo not drawn) [2-bromo-3-fluoro-N-((2-methyl-2-azabicyclo[2.2.2]octan-1-yl)(phenyl)methyl)benzamide] stands 25.8 nM. Same read-out and setting: under `CN1CC2CCC1(C(NC(=O)c1c(Cl)cccc1Br)c1ccccc1)CC2` (stereo not drawn) [2-bromo-6-chloro-N-((2-methyl-2-azabicyclo[2.2.2]octan-1-yl)(phenyl)methyl)benzamide] stands 12.1 nM.

Where the note is “compounds of Formula Ib”, `Cc1cccc(Br)c1C(=O)NC(c1ccccc1)C12CCC(CC1)CN2C` (stereo not drawn) [2-bromo-6-methyl-N-((2-methyl-2-azabicyclo[2.2.2]octan-1-yl)(phenyl)methyl)benzamide] came in with a concentration for half-maximal inhibition (IC50) of 1.34 nM. Same read-out and setting: next, `CN1CC2CCC1(C(NC(=O)c1ccccc1Br)c1ccccc1)CC2` (stereo not drawn) [2-bromo-N-((2-methyl-2-azabicyclo[2.2.2]octan-1-yl)(phenyl)methyl)benzamide]: 10.5 nM.

Compound `CN1CC2CCC1(C(NC(=O)c1cccc(F)c1Cl)c1ccccc1)CC2` (stereo not drawn) [2-chloro-3-fluoro-N-((2-methyl-2-azabicyclo[2.2.2]octan-1-yl)(phenyl)methyl)benzamide] gave an IC50 (compounds of Formula Ib) of 12 nM.

As for `COc1ccc(Cl)c(C(=O)NC(c2ccccc2)C23CCC(CC2)CN3C)c1` (stereo not drawn) [2-chloro-5-methoxy-N-((2-methyl-2-azabicyclo[2.2.2]octan-1-yl)(phenyl)methyl)benzamide], the IC50 (compounds of Formula Ib) was 32.7 nM.

In turn, `COc1cccc(Cl)c1C(=O)NC(c1ccccc1)C12CCC(CC1)CN2C` (stereo not drawn) [2-chloro-6-methoxy-N-((2-methyl-2-azabicyclo[2.2.2]octan-1-yl)(phenyl)methyl)benzamide] registered a half-inhibitory concentration (IC50) (compounds of Formula Ib) of 3.15 nM.

In turn, `Cc1cccc(Cl)c1C(=O)NC(c1ccccc1)C12CCC(CC1)CN2C` (stereo not drawn) [2-chloro-6-methyl-N-((2-methyl-2-azabicyclo[2.2.2]octan-1-yl)(phenyl)methyl)benzamide] registered an IC50 (compounds of Formula Ib) of 2.3 nM. As to `CN1CC2CCC1(C(NC(=O)c1ccccc1Cl)c1ccccc1)CC2` (stereo not drawn) [2-chloro-N-((2-methyl-2-azabicyclo[2.2.2]octan-1-yl)(phenyl)methyl)benzamide], half-maximal inhibition (compounds of Formula Ib) (IC50) was put at 65.1 nM. Same read-out and setting: next, `CN1CC2CCC1(C(NC(=O)c1cccc(C(F)(F)F)c1F)c1ccccc1)CC2` (stereo not drawn) [2-fluoro-N-((2-methyl-2-azabicyclo[2.2.2]octan-1-yl)(phenyl)methyl)-3-(trifluoromethyl)benzamide]: 92 nM; `CN1CC2CCC1(C(NC(=O)c1c(F)cccc1C(F)(F)F)c1ccccc1)CC2` (stereo not drawn) [2-fluoro-N-((2-methyl-2-azabicyclo[2.2.2]octan-1-yl)(phenyl)methyl)-6-(trifluoromethyl)benzamide]: 65 nM; `Cc1c(C(=O)NC(c2ccccc2)C23CCC(CC2)CN3C)cccc1C(F)(F)F` (stereo not drawn) [2-methyl-N-((2-methyl-2-azabicyclo[2.2.2]octan-1-yl)(phenyl)methyl)-3-(trifluoromethyl)benzamide]: less than 2.34 nM. `Cc1ccccc1C(=O)NC(c1ccccc1)C12CCC(CC1)CN2C` (stereo not drawn) [2-methyl-N-((2-methyl-2-azabicyclo[2.2.2]octan-1-yl)(phenyl)methyl)benzamide] yielded a 50% inhibitory concentration (IC50) (compounds of Formula Ib) of 3.48 nM. The same measure, in the same setting: next, `Cc1c(F)cccc1C(=O)NC(c1ccccc1)C12CCC(CC1)CN2C` (stereo not drawn) [3-fluoro-2-methyl-N-((2-methyl-2-azabicyclo[2.2.2]octan-1-yl)(phenyl)methyl)benzamide]: 2.6 nM; `CN1CC2CCC1([C@H](NC(=O)c1ccc(Cl)cc1Cl)c1ccccc1)CC2` [(R)-2,4-dichloro-N-((2-methyl-2-azabicyclo[2.2.2]octan-1-yl)(phenyl)methyl)benzamide,citric acid salt]: 11.1 nM. In turn, `CN1CC2CCC1([C@H](NC(=O)c1cccc(F)c1Cl)c1ccccc1)CC2` [(R)-2-chloro-3-fluoro-N-((2-methyl-2-azabicyclo[2.2.2]octan-1-yl)(phenyl)methyl)benzamide,citric acid salt] displayed an IC50 (compounds of Formula Ib) of 5.9 nM. As to `COc1cccc(Cl)c1C(=O)N[C@H](c1ccccc1)C12CCC(CC1)CN2C` [(R)-2-chloro-6-methoxy-N-((2-methyl-2-azabicyclo[2.2.2]octan-1-yl)(phenyl)methyl)benzamide,citric acid salt], half-maximal inhibition (compounds of Formula Ib) (IC50) was put at 4.74 nM.

Under “compounds of Formula Ib”, `CCOc1ccccc1C(=O)N[C@H](c1ccccc1)C12CCC(CC1)CN2C` [(R)-2-ethoxy-N-((2-methyl-2-azabicyclo[2.2.2]octan-1-yl)(phenyl)methyl)benzamide,citric acid salt] had an IC50 of 336 nM. The same measure, in the same setting: under `CCc1ccccc1C(=O)N[C@H](c1ccccc1)C12CCC(CC1)CN2C` [(R)-2-ethyl-N-((2-methyl-2-azabicyclo[2.2.2]octan-1-yl)(phenyl)methyl)benzamide,citric acid salt] stands 0.965 nM; under `CN1CC2CCC1([C@H](NC(=O)c1ccccc1C(F)(F)F)c1ccccc1)CC2` [(R)-N-((2-methyl-2-azabicyclo[2.2.2]octan-1-yl)(phenyl)methyl)-2-(trifluoromethyl)benzamide,citric acid salt], 49.6 nM. Take `O=C(NC(c1ccccc1)C12CCC(CC1)CN2)c1cccc(C(F)(F)F)c1Cl` (stereo not drawn) [N-(2-azabicyclo[2.2.2]octan-1-yl(phenyl)methyl)-2-chloro-3-(trifluoromethyl)benzamide]: inhibition (compounds of Formula Ia) was half-maximal at 258 nM (IC50). `CN1CC2CCC1(C(NC(=O)c1cc(C(F)(F)F)ccc1C(F)(F)F)c1ccccc1)CC2` (stereo not drawn) [N-((2-methyl-2-azabicyclo[2.2.2]octan-1-yl)(phenyl)methyl)-2,5-bis(trifluoromethyl)benzamide] had an IC50 (compounds of Formula Ib) of 86.2 nM.

Take `CSc1ccccc1C(=O)NC(c1ccccc1)C12CCC(CC1)CN2C` (stereo not drawn) [N-((2-methyl-2-azabicyclo[2.2.2]octan-1-yl)(phenyl)methyl)-2-(methylthio)benzamide]: inhibition (compounds of Formula Ib) was half-maximal at 2.95 nM (IC50). For the compound `CN1CC2CCC1(C(NC(=O)c1ccccc1OC(F)(F)F)c1ccccc1)CC2` (stereo not drawn) [N-((2-methyl-2-azabicyclo[2.2.2]octan-1-yl)(phenyl)methyl)-2-(trifluoromethoxy)benzamide], the IC50 (compounds of Formula Ib) was 13.6 nM. Still for that read-out and setting: next, `CN1CC2CCC1(C(NC(=O)c1ccc(F)cc1Cl)c1ccccc1)CC2` (stereo not drawn) [drawing 37, 2-chloro-4-fluoro-N-((2-methyl-2-azabicyclo[2.2.2]octan-1-yl)(phenyl)methyl)benzamide]: 8.45 nM.

The values are drawn from patent publication US20090030033A1, “Novel Compounds 894” (AstraZeneca AB, priority 2007, published 2009).
